Key:
Format in all cases: cell-based
[1] = system: MDA-MB231 (TNBC cell line); assay: MTT cell viability assay, MDA-MB231; conditions: Homo sapiens, MDA-MB-231, 72 h, read-out: IC50 ± SD, MDA-MB231
Experimental: (§1) The following cancer and non-cancer cell lines were used in the initial cytotoxicity screening of the TPH104 compounds: triple negative breast cancer (TNBC): MDA-MB468, MDA-MB 231, and BT-20; non-TNBC: MCF-7 and ZR-75-1; ovarian: Ov2008; prostate: DU145; colon: HCT-116, S1, and LOVO; lung: H460; normal kidney: HEK-293; normal breast: HMEC; and normal colon: CRL-1459. All cells were cultured in Dulbecco's modified Eagle medium (DMEM), supplemented with 10% fetal bovine serum (FBS), and 1% penicillin/streptomycin (P/S). Cells were allowed to grow as adherent monolayers in T25 flasks in a humidified incubator with 5% CO2 at 37° C. for a period of 24 h, unless otherwise specified for certain experiments.
(§2) The MTT assay was used to determine the cytotoxicity of all of the compounds. Briefly, in a 96-well flat-bottom cell culture plate, the cells were seeded at a density between 3-5×10^3 cells/well (180 μl in each well) and incubated for 24 h (a hemocytometer was used for cell counting). The next day, the cells were incubated with different concentrations of the nine compounds (0, 0.1, 0.3, 1, 3, 10, 30, and 100 μM) for 72 h. After 72 h, 20 μl of 5 mg/ml of 3-(4,5-dimethylthiazol-2-yl)-2,5-diphenyltetrazolium bromide (MTT) was added to the plate and incubated with the cells for 3 h at 37° C. In this experiment, the living cells will reduce the soluble MTT dye to non-soluble purple formazan crystals. Following incubation, the media containing MTT removed via suction and 100 μL of 100% dimethyl sulfoxide (DMSO) was added to dissolve the formazan crystals. Subsequently, the plate was shaken for 2 minutes and the absorbance was measured at a wavelength of 570 nm using a SpectraMax iD3 Multi-Mode Microplate Reader (Molecular Devices, Sunnyvale, CA). The IC50 values of each compound were calculated and used to determine the selectivity ratio (IC50 in normal cells/IC50 in cancer cells) of each compound as previously described. Based on the results obtained from these experiments, the compound TPH104, which had the lowest IC50 value, was selected for further experiments.

[2] = system: normal human mammary epithelial cells (HMEC); assay: MTT cell viability assay, HMEC
Experimental: as §1, §2

[3] = system: RAW264.7 macrophage cells; assay: Optically activated migration of RAW264.7 cells; conditions: 10 μM
Experimental: FIGS. 13A-13B: The in vitro effect of TPH104 on the migratory and invasive properties of MDA-MB231 TNBC cells using the wound healing assay. […] Control cells were incubated with 11-cis retinal (50 μM) for 5 minutes in the dark. A confined optical input of 445 nm was placed in-front of cells using a user-defined region of interest (ROI) and optically activated (OA) continuously in the direction of cell migration pathway for 20 minutes (OA=blue box). Cells were incubated with 10 μM of TPH104 for 30 minutes, followed by incubation with 11-cis retinal (50 μM) for 5 minutes in the dark. Scale=5 μm.
To further confirm the anti-migratory effect of TPH104, RAW264.7 macrophage cells were incubated with 10 μM TPH104 and its effect on Gai-coupled-GPCR activation was determined.

[4] = system: EMT and Wnt/β-catenin signaling proteins in BT-20 cells; assay: Western blot, EMT and Wnt/β-catenin proteins, BT-20
Experimental: (§3) The TNBC cells were seeded in a culture flask and incubated for 24 h. The cells were then incubated with different concentrations of the lead compounds and re-incubated for an additional 12 or 24 h. […] The bicinchoninic acid (BCA) was used to determine protein concentration in the cell extracts (G-BIOSCIENCES, St. Louis, MO, USA). […] The membrane was blocked using 5% milk in Tris-buffered Tween 20 saline for 30 minutes. The membrane was then incubated overnight with primary antibodies against Bak, Bax, Bcl-2, caspase9, caspase 3, caspase 7, PARP, cytochrome c, N-cadherin, E-cadherin, c-Myc, dishevelled segment polarity protein 3 (DVL3), dishevelled segment polarity protein 2 (DVL2), Vimentin, mitogen-activated protein kinase kinase (MAPKK also known as MEK1/2), β-catenin, low-density lipoprotein receptor-related protein 6 (LRP6), receptor-interacting protein kinase (RIP), phosphorylated RIP (p-RIP), mixed lineage kinase domain like pseudokinase(MLKL), Caspase 8, light chain 3 (LC3), lysosomal-associated membrane protein 1 (LAMP1), unc-51 like autophagy activating kinase 1 (ULK1), ras associated protein 7 (Rab7), ras associated protein 5 (Rab5), Beclin 1, mechanistic target of rapamycin (mTOR), tumor necrosis factor alpha (TNF-α), tumor necrosis factor receptor 1 (TNFR1), tumor necrosis factor receptor 2 (TNFR2), Fas-associated protein with death domain (FADD), Fas ligand (Fas), TNF-related apoptosis-inducing ligand (TRAIL), death receptor 5 (DR5), Tumor necrosis factor receptor type 1-associated DEATH domain (TRADD), receptor-interacting protein kinase 3 (RIP3), β-actin or GAPDH in 1:1000 dilution in 5% milk or 5% BSA at 4° C. Horseradish peroxidase-labeled (HRP) anti-rabbit or anti-mouse secondary antibodies (1:5,000 dilution) were added and incubated the next day for an additional 1 h. A ChemiDoc™ MP System imaging system from Bio-Rad (Hercules, CA, USA) was used for blots reading. Blots were used to obtain the protein bands, followed by quantification of the bands using image J software (NIH, Bethesda, MD, USA). All of the data were expressed as the ratio of β-actin or GAPDH.

[5] = system: TRAIL, DR5, TRADD, RIP3, TNF-α, TNFR1, FADD, Fas in BT-20 TNBC cells; assay: Western blot, TRAIL and TNF pathway proteins
Experimental: as §3, with “Horseradish peroxidase-labeled (HRP) anti-rabbit or anti-mouse secondary antibodies (1:5,000 dilution) were added and incubated the next day for an additional 1 h.” left out

[6] = biological target: T1, P-gp (ABCB1), DU145TXR prostate cancer cells (Homo sapiens, UniProt P08183); assay: Calcein AM assay for P-gp modulation; conditions: concentration dependent
T1 construct: endogenous in cells; host or cells: DU145TXR prostate cancer cells
T1 sequence (P08183 whole entry): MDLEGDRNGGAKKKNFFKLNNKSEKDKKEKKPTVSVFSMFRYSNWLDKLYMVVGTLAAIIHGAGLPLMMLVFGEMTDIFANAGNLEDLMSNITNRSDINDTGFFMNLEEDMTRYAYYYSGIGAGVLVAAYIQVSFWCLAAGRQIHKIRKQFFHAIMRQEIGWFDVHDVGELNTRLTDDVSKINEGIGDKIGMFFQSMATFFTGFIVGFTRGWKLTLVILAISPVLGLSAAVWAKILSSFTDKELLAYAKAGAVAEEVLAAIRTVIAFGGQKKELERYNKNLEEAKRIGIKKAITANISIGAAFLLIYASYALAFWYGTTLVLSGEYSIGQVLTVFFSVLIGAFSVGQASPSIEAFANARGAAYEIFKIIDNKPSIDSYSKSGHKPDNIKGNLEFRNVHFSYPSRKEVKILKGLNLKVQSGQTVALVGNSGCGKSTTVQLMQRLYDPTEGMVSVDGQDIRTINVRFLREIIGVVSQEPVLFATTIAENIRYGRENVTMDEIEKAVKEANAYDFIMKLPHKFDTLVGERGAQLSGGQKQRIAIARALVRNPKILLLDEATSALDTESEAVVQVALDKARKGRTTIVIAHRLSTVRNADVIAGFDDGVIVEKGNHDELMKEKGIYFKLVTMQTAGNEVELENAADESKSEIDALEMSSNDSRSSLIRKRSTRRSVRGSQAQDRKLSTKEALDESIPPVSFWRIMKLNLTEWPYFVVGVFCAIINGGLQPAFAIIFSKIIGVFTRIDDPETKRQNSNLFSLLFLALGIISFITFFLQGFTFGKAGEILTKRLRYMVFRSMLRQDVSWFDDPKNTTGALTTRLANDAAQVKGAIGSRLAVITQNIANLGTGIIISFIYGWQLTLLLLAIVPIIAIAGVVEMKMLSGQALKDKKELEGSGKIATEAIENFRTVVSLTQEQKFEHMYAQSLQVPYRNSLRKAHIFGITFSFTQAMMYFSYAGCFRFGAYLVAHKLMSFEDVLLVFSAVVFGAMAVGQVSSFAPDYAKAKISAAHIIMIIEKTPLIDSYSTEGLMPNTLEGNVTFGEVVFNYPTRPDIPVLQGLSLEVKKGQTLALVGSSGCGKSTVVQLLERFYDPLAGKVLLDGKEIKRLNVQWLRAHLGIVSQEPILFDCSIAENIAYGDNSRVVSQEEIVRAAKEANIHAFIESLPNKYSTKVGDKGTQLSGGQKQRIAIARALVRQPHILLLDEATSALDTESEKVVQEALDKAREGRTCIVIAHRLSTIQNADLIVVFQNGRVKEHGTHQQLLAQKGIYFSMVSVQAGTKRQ
Experimental: Ability of P-gp to efflux Calcein AM is used to identify the molecules which interfere with P-gp transporter activity. About 10000 cells of DU145TXR prostate cancer cells were seeded in each well in 96 well plates and allowed to grow until confluency for 4-5 days. Then media was replaced with phenol red free RPMI media and cells were treated with indicated concentrations of TPH104s and 1 μg/mL of Calcein AM. Fluorescence measured after 60 minutes with excitation at 485/20 nm and at emission 535/20 nm using the BioTek Cytation 5 imaging multi-mode reader (Bio-Tek, Winooski, VT). DMSO (0.5% v/v) was used as the vehicle, and 15 μM of Pgp inhibitor SMU 45 was used as a positive control. (n=6 in each trial).

COc1ccc(O)c(/C=N/Nc2ncnc3scc(-c4ccc(C)cc4)c23)c1 [TPH104]
IC50 [1]: 190 nM | selectivity fold on TNBC cells compared to normal human mammary epithelial cells [2]: more than 100 fold | IC50 for HMEC, fold higher than the IC50 values for TNBC cells ([2]; HMEC vs TNBC cells): 330-411 fold | IC50 ([2]; Homo sapiens, HMEC, MTT, 72 h, Normal, read-out: IC50 ± SD, HMEC): 82.3 µM | migration of RAW264.7 cells [3]: significantly decreased | expression levels of DVL3, DVL2, vimentin, and MEK1/2 ([4]; 2 μM and 5 μM): significantly decreased | expression of N-cadherin ([4]; 2 μM and 5 μM): significantly decreased | expression of c-Myc ([4]; 0.5, 1, 2, and 5 μM): significantly decreased | expression of β-catenin or LRP6 ([4]; 0.5, 1, 2, and 5 μM): did not significantly alter | expression of E-cadherin ([4]; 1, 2, or 5 μM): significantly increased | TNF-α ([5]; 0.5, 1, 2, and 5 μM): no significant change | expression of TNFR1, FADD, and Fas ([5]; 0.5, 1, 2, and 5 μM): significantly inhibited | TRAIL, its receptor (DRS), RIP3, and TRADD ([5]; 0.5, 1, 2, or 5 μM): significant increase | efflux function of ABCB1 [6]: blocking the efflux function

Reference: patent US12390467B2, “Necroptosis inducers or autophagy inhibitors or a combination thereof” (The University of Toledo, priority 2018, dated 2025)
